Measured values as given in patent US20230104936A1, “TRPML MODULATORS” (Casma Therapeutics, Inc., priority 2019, published 2023).

The molecules below were run on TFEB (assay: TFEB nuclear translocation assay, HeLa wt cells). Details: Homo sapiens, HeLa, 2 h, 2 hrs compound treatment, Table 1 does not say HeLa wt or TRPML1 KO.
Type: cell-based
Method in brief: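 Using 20× epifluorescence of fixed, anti-TFEB-stained HeLa wt cells treated 2 hrs with compound, nuclear versus perinuclear ring intensity was quantified over four fields per well, yielding AC50 values.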

SMILES | AC50 [µM]
CN(C)S(=O)(=O)c1ccc(S(=O)(=O)Nc2ccccc2[C@H]2CC[C@@H](c3ccc(Cl)cc3F)CC2)cc1 [Compound A-69, N1-(2-(4-(4-chloro-2-fluorophenyl)cyclohexyl)phenyl)-N4,N4-dimethylbenzene-1,4-disulfonamide] | 2.01 to 8
CN(C)S(=O)(=O)c1ccc(S(=O)(=O)Nc2ccccc2[C@H]2CC[C@H](c3ccc(Cl)cc3F)CC2)cc1 [Compound A-70, N1-(2-(4-(4-chloro-2-fluorophenyl)cyclohexyl)phenyl)-N4,N4-dimethylbenzene-1,4-disulfonamide] | ≤ 2
CN(C)S(=O)(=O)c1ccc(S(=O)(=O)N2CCC(N3CCC(c4ccc(Cl)cc4F)CC3)C2=O)cc1 (centres unmarked) [Compound A-71, 4-((3-(4-(4-chloro-2-fluorophenyl)piperidin-1-yl)-2-oxopyrrolidin-1-yl)sulfonyl)-N,N-dimethylbenzenesulfonamide] | ≥ 10
Cc1ccc(S(=O)(=O)Nc2ccccc2N2CCC(c3ccc(Cl)cc3F)CC2)cc1 [Compound A-72, N-{2-[4-(4-chloro-2-fluorophenyl)piperidin-1-yl]phenyl}-4-methylbenzene-1-sulfonamide] | ≤ 2
O=S(=O)(Nc1ccccc1N1CCC(c2ccc(Cl)cc2F)CC1)c1ccc(Cl)cc1 [Compound A-73, 4-chloro-N-{2-[4-(4-chloro-2-fluorophenyl)piperidin-1-yl]phenyl}benzene-1-sulfonamide] | ≤ 2
O=S(=O)(Nc1ccccc1N1CCC(c2ccc(Cl)cc2F)CC1)c1ccc(F)cc1 [Compound A-74, N-{2-[4-(4-chloro-2-fluorophenyl)piperidin-1-yl]phenyl}-4-fluorobenzene-1-sulfonamide] | 2.01 to 8
Cc1nn(C)c(NS(=O)(=O)c2ccc(S(=O)(=O)N(C)C)cc2)c1C1CCN(c2ccc(Cl)cc2F)CC1 [Compound A-75, N1-(4-(1-(4-chloro-2-fluorophenyl)piperidin-4-yl)-1,3-dimethyl-1H-pyrazol-5-yl)-N4,N4-dimethylbenzene-1,4-disulfonamide] | ≥ 10
O=S(=O)(Nc1ccccc1N1CCC(c2ccc(Cl)cc2F)CC1)c1ccccc1Cl [Compound A-76, 2-chloro-N-{2-[4-(4-chloro-2-fluorophenyl)piperidin-1-yl]phenyl}benzene-1-sulfonamide] | ≥ 10
O=S(=O)(Nc1ccccc1N1CCC(c2ccc(Cl)cc2F)CC1)c1cccc(Cl)c1 [Compound A-77, 3-chloro-N-{2-[4-(4-chloro-2-fluorophenyl)piperidin-1-yl]phenyl}benzene-1-sulfonamide] | ≤ 2
O=S(=O)(Nc1ccccc1N1CCC(c2ccc(Cl)cc2F)CC1)c1cccc(F)c1 [Compound A-78, N-{2-[4-(4-chloro-2-fluorophenyl)piperidin-1-yl]phenyl}-3-fluorobenzene-1-sulfonamide] | ≥ 10
O=S(=O)(Nc1ccccc1N1CCC(c2ccc(Cl)cc2F)CC1)c1ccccc1F [Compound A-79, N-{2-[4-(4-chloro-2-fluorophenyl)piperidin-1-yl]phenyl}-2-fluorobenzene-1-sulfonamide] | ≥ 10
O=S(=O)(Nc1ccccc1N1CCC(c2ccc(Cl)cc2F)CC1)c1ccc(F)c(F)c1 [Compound A-80, N-{2-[4-(4-chloro-2-fluorophenyl)piperidin-1-yl]phenyl}-3,4-difluorobenzene-1-sulfonamide] | 2.01 to 8
O=S(=O)(Nc1ccccc1N1CCC(c2ccc(Cl)cc2F)CC1)c1c(F)cccc1F [Compound A-81, N-{2-[4-(4-chloro-2-fluorophenyl)piperidin-1-yl]phenyl}-2,6-difluorobenzene-1-sulfonamide] | ≥ 10
O=S(=O)(Nc1ccccc1N1CCC(c2ccc(Cl)cc2F)CC1)c1cc(F)ccc1F [Compound A-82, N-{2-[4-(4-chloro-2-fluorophenyl)piperidin-1-yl]phenyl}-2,5-difluorobenzene-1-sulfonamide] | ≥ 10
O=S(=O)(Nc1ccccc1N1CCC(c2ccc(Cl)cc2F)CC1)c1ccc(C(F)(F)F)cc1 [Compound A-83, N-{2-[4-(4-chloro-2-fluorophenyl)piperidin-1-yl]phenyl}-4-(trifluoromethyl)benzene-1-sulfonamide] | ≤ 2
CN(C)S(=O)(=O)c1ccc(S(=O)(=O)Nc2nc(C3CCN(c4ccc(Cl)cc4F)CC3)cn2C)cc1 [Compound A-84, N4-{4-[1-(4-chloro-2-fluorophenyl)piperidin-4-yl]-1-methyl-1H-imidazol-2-yl}-N1,N1-dimethylbenzene-1,4-disulfonamide] | ≥ 10
O=C1c2ccccc2S(=O)(=O)N1c1ccccc1N1CCC(c2ccc(Cl)cc2F)CC1 [Compound A-85, 2-{2-[4-(4-chloro-2-fluorophenyl)piperidin-1-yl]phenyl}-2,3-dihydro-1λ^6,2-benzothiazole-1,1,3-trione] | ≥ 10
CN(C)S(=O)(=O)c1ccc(S(=O)(=O)N2CCN(C3CCN(c4ccc(Cl)cc4F)CC3)C2=O)cc1 [Compound A-86, 4-((3-(1-(4-chloro-2-fluorophenyl)piperidin-4-yl)-2-oxoimidazolidin-1-yl)sulfonyl)-N,N-dimethylbenzenesulfonamide] | ≥ 10
O=S(=O)(Nc1ccccc1N1CCC(c2ccc(Cl)cc2F)CC1)c1ccc(F)cc1F [Compound A-87, N-{2-[4-(4-chloro-2-fluorophenyl)piperidin-1-yl]phenyl}-2,4-difluorobenzene-1-sulfonamide] | ≥ 10
Cc1ccc(S(=O)(=O)Nc2ccccc2N2CC=C(c3ccc(Cl)cn3)CC2)cc1 [Compound A-88, N-(2-{5-chloro-1′,2′,3′,6′-tetrahydro-[2,4′-bipyridin]-1′-yl}phenyl)-4-methylbenzene-1-sulfonamide] | 2.01 to 8
Cc1nc(N2CCN(c3ccc(Cl)cc3F)CC2=O)cn1S(=O)(=O)c1ccc(S(=O)(=O)N(C)C)cc1 [Compound A-89, 4-((4-(4-(4-chloro-2-fluorophenyl)-2-oxopiperazin-1-yl)-2-methyl-1H-imidazol-1-yl)sulfonyl)-N,N-dimethylbenzenesulfonamide] | ≤ 2
O=S(=O)(Nc1ccccc1N1CCC(c2ccc(Cl)cc2F)CC1)c1cc(F)cc(F)c1 [Compound A-91, N-{2-[4-(4-chloro-2-fluorophenyl)piperidin-1-yl]phenyl}-3,5-difluorobenzene-1-sulfonamide] | ≥ 10
Cc1ccc(S(=O)(=O)Nc2ccccc2N2CCC(c3ccccn3)CC2)cc1 [Compound A-92, 4-methyl-N-{2-[4-(pyridin-2-yl)piperidin-1-yl]phenyl}benzene-1-sulfonamide] | ≤ 2
Cc1ccc(S(=O)(=O)Nc2ccccc2-n2ccc(-c3ccc(Cl)cc3F)c2)cc1 [Compound A-93, N-{2-[3-(4-chloro-2-fluorophenyl)-1H-pyrrol-1-yl]phenyl}-4-methylbenzene-1-sulfonamide] | ≥ 10
O=S1(=O)c2ccccc2CN1c1ccccc1N1CCC(c2ccc(Cl)cc2F)CC1 [Compound A-94, 2-{2-[4-(4-chloro-2-fluorophenyl)piperidin-1-yl]phenyl}-2,3-dihydro-1λ^6,2-benzothiazole-1,1-dione] | 2.01 to 8
CN(C)S(=O)(=O)c1ccc(S(=O)(=O)n2ccc(C3CCN(c4ncc(Cl)cc4F)CC3)n2)cc1 [Compound A-96, 4-((3-(1-(5-chloro-3-fluoropyridin-2-yl)piperidin-4-yl)-1H-pyrazol-1-yl)sulfonyl)-N,N-dimethylbenzenesulfonamide] | ≥ 10
